Marks after values point to notes of the source that are not given here.
Legend:
[1] = system: human pancreatic cancer cells PANC-1; assay: MTT growth inhibition, PANC-1 cells; assay type: cell-based; details: 72 h after treatment, read-out: Drug concentration (IC50) at which 50% cancer cells survived
Excerpt: (§1) Cell lines and cell culture: human lung cancer cells A549 and H460, human breast cancer cells MCF-7 and MDA-MB-231, human gastric cancer cells BGC-823, human prostate cancer cells PC-3, human chronic leukemia cells K562, human lymphoma cells U937, human liver cancer cells SMMC7721 and HepG2, human colon cancer cells HT29, human pancreatic cancer cells PANC-1 and BxPC3, human cervical cancer Hela cell lines, human brain tumor cells Daoy, human neuroma cells D54 and human oral epidermoid cancer cells KBV200 line with strong drug resistance, mouse melanoma cells B16, and highly metastatic Lewis lung cancer cell lines were purchased from American Type Culture Collection of the U.S. These cells were cultured with DMEM and RPMI-1640 culture solutions separately.
(§2) The procedure was as follows:
(§3) (1) 0.25% trypsin was used to digest cancer cells in a logarithmic growth phase to prepare a single-cell suspension, the concentration of cells was adjusted to 5×10^4/mL, and the adjusted suspension was inoculated into a 96-well culture plate with 100 μl per well;
(§4) (2) The culture plate was transferred into a 37° C. incubator with a saturated humidity and 5% of CO2 and cultured for 24 h; the compounds and the intermediates thereof obtained in embodiments 1-7 and the compound as represented by formula (IIIa) or the positive control anti-cancer drug with the concentration of 1-1000 μM/L were added to enable the final concentration to be 0.1-1500 μM/L. Control wells (only added with 200 μl of cell suspension) and drug-free blank control wells (containing the solvent of 0.01% DMSO) were set, each group included 8 wells, and the plate was placed into the 37° C. incubator with saturated humidity and 5% of CO2 for culturing;
(§5) (3) The 96-well plate was taken out at 48 h and 72 h after dosing, the original culture medium was carefully removed by suction, 100 μl of serum-free DMEM culture medium and 10 μl of MTT (5 mg/mL) solution were added in each well. The plate was continuously cultured for another 4 h and then the culture was terminated;
(§6) (4) The supernatant in the wells was carefully removed by suction, each well was added with 150 μl of DMSO and shaked at room temperature for 10-15 min to fully dissolve crystals.
(§7) (5) Colorimetric analysis: the wavelength was selected as 570 nm, the light absorbance (A value) of each well was determined on the microplate reader and the results were recorded; the experiment was repeated for three times;
(§8) (6) the experimental results were calculated according to the following formula: relative survival rate=(A value of each experimental group/A value of cell control group)×100%
(§9) Calculation of median-effect concentration (IC50, namely the drug concentration at which the inhibition rate is 50%, also known as half inhibitory concentration):
(§10) IC50 of the detected component was calculated by using a regression equation.

[2] = system: human pancreatic cancer cells BxPC3; assay: MTT growth inhibition, BxPc3 cells; assay type: cell-based; details: Homo sapiens, BXPC-3, 72 h after treatment, read-out: Drug concentration (IC50) at which 50% cancer cells survived
Excerpt: as §1, §2, §3, §4, §5, §6, §7, §8, §9, §10

[3] = system: human lung cancer cells A549 xenograft; assay: In-vivo growth of A549 xenografts in nude mice; design: species or system BALB/c nude mice; details: Mus musculus, ip, vs DMSO solvent control, read-out: Curative effect (inhibition rate %) of tumor weight; for inhibition in vivo at 60 mg/kg: 60 mg/kg intraperitoneal once a day; for inhibition in vivo at 90 mg/kg: 90 mg/kg intraperitoneal once a day
Method: (§11) RPMI1640 and DMEM culture solutions: Hyclone Company; inactivated fetal bovine serum: Hyclone Company, preserved at −20° C.; trypsin: Amersco Company; and 0.4% trypan blue: Sigma Company;
(3) Observation of growth of tumors in nude mice: the activities (including food intake, traits of urine and stool, mental state and the like) of the nude mice and the tumor growth time and growth situation of the transplanted tumors were observed every day, the body weight and the size of the tumors were measured once every 2-3 days. The long diameter a and the short diameter b (mm) of each tumor were measured by a vernier caliper to calculate the volume, wherein the volume V=π1/2·ab^2 (mm^3);
(§12) (4) sacrifice of animals: the mice were anesthetized and photoed after treatment experiments; the nude mice were sacrificed by breaking neck, the tumor tissues were stripped under sterile conditions and the weight of the tumors was weighed; and the effects of the drugs on pathology and toxicity of the various organs and tissues were detected.

[4] = system: Lewis lung cancer (highly metastatic mouse lung cancer) cells; assay: Mouse Lewis lung cancer metastasis model; assay type: in vivo, C57/BL6J black mice; details: Lewis lung carcinoma, ip, LLC, vs DMSO solvent control, read-out: tumor lung metastasis inhibition rate % of mouse Lewis lung cancer; for inhibition in vivo at 60 mg/kg: 60 mg/kg intraperitoneal once a day; for inhibition in vivo at 90 mg/kg: 90 mg/kg intraperitoneal once a day
Method: as §11, §12

[5] = system: human lymphoma cells U937; assay: MTT growth inhibition, U937 cells; assay type: cell-based; details: Homo sapiens, U-937, 72 h after treatment, read-out: Drug concentration (IC50) at which 50% cancer cells survived
Method: as §2, §5, §6, §7, §8, §10

[6] = system: human prostate cancer cells PC-3; assay: MTT growth inhibition, PC-3 cells; assay type: cell-based; details: 72 h after treatment, read-out: Drug concentration (IC50) at which 50% cancer cells survived
Excerpt: as §1, §2, §3, §4, §5, §6, §7, §8, §9, §10

EZH2 = molecular target: T1, EZH2 (Homo sapiens, UniProt Q15910); assay: EZH2 enzyme activity in protein extracts of human tumor xenografts of treated mice (EZH2 Assay Kit); assay type: in vivo; details: tumors excised 6 h after medication, SAHA 25 mg/kg
T1 construct: the EZH2 enzyme was replaced with tumor protein extracts in each group; from tissue; host or cells: human tumour xenografts excised from treated nude mice
T1 sequence (Q15910 whole entry): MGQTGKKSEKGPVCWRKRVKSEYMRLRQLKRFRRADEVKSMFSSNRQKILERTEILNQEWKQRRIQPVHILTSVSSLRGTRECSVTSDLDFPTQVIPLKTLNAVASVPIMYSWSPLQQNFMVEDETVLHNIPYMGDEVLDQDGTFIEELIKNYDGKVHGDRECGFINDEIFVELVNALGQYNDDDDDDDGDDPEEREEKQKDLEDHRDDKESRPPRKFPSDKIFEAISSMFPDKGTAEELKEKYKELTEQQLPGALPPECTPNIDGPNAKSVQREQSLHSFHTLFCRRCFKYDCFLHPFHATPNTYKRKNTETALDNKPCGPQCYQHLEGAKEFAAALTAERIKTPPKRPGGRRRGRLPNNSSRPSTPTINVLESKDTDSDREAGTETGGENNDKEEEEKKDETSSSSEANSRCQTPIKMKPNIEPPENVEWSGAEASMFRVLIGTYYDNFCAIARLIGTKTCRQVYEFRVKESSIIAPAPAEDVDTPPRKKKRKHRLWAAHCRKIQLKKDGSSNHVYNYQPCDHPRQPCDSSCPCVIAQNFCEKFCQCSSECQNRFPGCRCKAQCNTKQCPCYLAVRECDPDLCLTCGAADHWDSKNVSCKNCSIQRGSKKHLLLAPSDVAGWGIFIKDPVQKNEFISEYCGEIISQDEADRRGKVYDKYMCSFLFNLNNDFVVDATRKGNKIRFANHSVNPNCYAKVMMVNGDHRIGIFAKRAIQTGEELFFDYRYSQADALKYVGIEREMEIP
T1 sequence (O75530 whole entry partner): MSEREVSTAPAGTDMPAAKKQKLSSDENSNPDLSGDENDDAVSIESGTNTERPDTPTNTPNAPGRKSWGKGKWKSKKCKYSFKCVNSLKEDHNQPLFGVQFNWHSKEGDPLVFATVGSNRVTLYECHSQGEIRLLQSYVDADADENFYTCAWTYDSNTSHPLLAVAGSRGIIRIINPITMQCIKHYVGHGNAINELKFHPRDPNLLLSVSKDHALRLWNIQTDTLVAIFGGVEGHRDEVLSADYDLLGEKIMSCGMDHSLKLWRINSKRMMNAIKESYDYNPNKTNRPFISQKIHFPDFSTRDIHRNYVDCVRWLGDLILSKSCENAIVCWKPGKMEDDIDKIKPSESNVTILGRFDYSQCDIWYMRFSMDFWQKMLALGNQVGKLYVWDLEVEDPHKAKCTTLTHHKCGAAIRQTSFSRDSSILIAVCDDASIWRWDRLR
T1 sequence (Q15022 whole entry partner): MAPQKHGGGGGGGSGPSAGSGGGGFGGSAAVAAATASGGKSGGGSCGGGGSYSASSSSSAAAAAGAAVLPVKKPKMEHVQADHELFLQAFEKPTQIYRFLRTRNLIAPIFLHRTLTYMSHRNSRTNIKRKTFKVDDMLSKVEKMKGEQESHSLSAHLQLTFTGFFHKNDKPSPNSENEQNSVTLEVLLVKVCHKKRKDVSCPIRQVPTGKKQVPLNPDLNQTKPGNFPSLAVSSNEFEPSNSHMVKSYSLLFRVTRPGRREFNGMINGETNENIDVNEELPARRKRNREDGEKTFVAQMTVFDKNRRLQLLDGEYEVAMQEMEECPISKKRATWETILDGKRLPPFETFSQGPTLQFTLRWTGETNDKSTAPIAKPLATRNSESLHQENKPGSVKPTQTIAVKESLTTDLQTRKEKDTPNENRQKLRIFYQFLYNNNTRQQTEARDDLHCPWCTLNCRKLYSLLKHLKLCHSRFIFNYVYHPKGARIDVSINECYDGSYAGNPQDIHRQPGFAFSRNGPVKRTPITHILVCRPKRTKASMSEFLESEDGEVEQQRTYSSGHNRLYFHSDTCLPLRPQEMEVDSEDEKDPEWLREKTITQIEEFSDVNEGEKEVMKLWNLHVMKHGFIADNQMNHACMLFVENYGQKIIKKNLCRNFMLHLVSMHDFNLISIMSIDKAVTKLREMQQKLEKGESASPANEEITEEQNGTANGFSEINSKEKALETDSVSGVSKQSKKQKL

Dvl-1 = assay: Western Blotting, Dvl-1 level; assay type: cell-based; details: human liver cancer cells, Lewis lung cancer cells and other cancer cell lines and tumor tissues, read-out: Effective concentration (IC50) for inhibition of Dvl-1
Excerpt: (§13) Antibodies: primary antibodies of VEGFR, EGFR, c-Met, K-Ras, H-Ras, Akt, NF-κB, Cyclin D1, ER-alpha, Dvl-1, Dvl-2, Dvl-3, MMP-9, MMP2, β-catenin, Bcl-2, Bax, p53, p21, E-cadherin and Caspase3 protein, purchased from American Cell Signaling Technology Company and Santa Cruz Technology Company; and H3 acetylation, H4 acetylation and HDAC (HDAC3, HDAC4 and the like) Antibody Sample Kits, purchased from Cell Signaling Technology Company of the U.S.
(§14) (3) polyacrylamide gel electrophoresis (SDS-PAGE): an equal amount of protein lysate sample was used to separate protein, film transfer, and blocking, treated with appropriate primary antibodies and secondary antibodies in sequence, and the film was washed, then the color was developed with ECL kit, and a blot protein band was detected by exposure of an X-ray film; and a Gel-Pro Analyzer was used for quantitative analysis of gray degree, optical density value of the control group and the drug treatment group in various concentration were respectively compared with that of internal reference, the obtained ratios were respectively compared with the control group, and the protein expression level was semi-quantified.

E-cadherin = assay: Western Blotting, increase of E-cadherin level; assay type: cell-based; details: liver cancer cells, Lewis lung cancer cells and other cancer cell lines and tumor tissue protein lysates, 48 h treatment, read-out: Effective concentration to increase E-cadherin by 50%
Excerpt: as §13, §14

HDAC3 = HDAC3 enzyme activity in nuclear extracts of human tumor xenografts of treated mice; details: first value of the pair HDAC3 and HDAC4, SAHA 25 mg/kg
Method: For the detection of the effect of the drugs on enzyme activity of EZH2 and HDAC of in-vivo tumors, the tumors were separately excised after 6 h of medication, total proteins and nucleoproteins were extracted separately to detect and analyze the activity of the enzyme.
(2) 50 μl of diluted sample solution was added into each reaction well, the plate was sealed with a plate-sealing film and reacted at room temperature for 30 min;
(3) the plate-sealing film was carefully peeled off, the liquid was removed, dried, 150 μl of washing liquid was added into each well, stood for 30 s, then the liquid was removed, repeated twice, and dried;
(4) 2 μl of HDAC enzyme or tumor tissue nuclear extracts was respectively uniformly mixed with 28 μl of diluted sample solution, added into the wells, the plate was sealed with the plate-sealing film and reacted at 37° C. for 60 min;
(5) the plate was washed for three times, wherein the operation was the same as that in (3); and a diluted antibody capture working solution was added into each reaction well according to 50 μl/well and reacted on a shaking bed at room temperature for 60 min;
(6) the plate was washed for four times, wherein the operation was the same as that in (3);
(7) a diluted antibody detection working solution was added into each reaction well according to 50 μl/well and reacted at room temperature for 30 min;
(8) the plate was washed for five times, wherein the operation was the same as that in (3);
a color developing agent was added according to 100 μl/well, and performed dark development for 2-10 min;
(9) 50 μl of stop solution was added into each well for stopping the reaction when the color in the well with a standard product turned blue with medium intensity, the color immediately turned yellow from blue after the addition;
(10) the light absorbance (OD value) of each well was measured in sequence at the wavelength of 450 nm; wherein the measurement should be performed within 15 min after addition of the stop solution; and

SMILES	IC50 [1]	IC50 [2]	inhibition in vivo at 60 mg/kg [3]	inhibition in vivo at 90 mg/kg [3]	inhibition in vivo at 60 mg/kg [4]	inhibition in vivo at 90 mg/kg [4]	IC50 [5]	IC50 [6]	decrease of EZH2 enzyme activity/inhibition rate (EZH2; A549 tumor grown in vivo)	decrease of EZH2 enzyme activity/inhibition rate (EZH2; MCF7 tumor grown in vivo)	decrease of EZH2 enzyme activity/inhibition rate (EZH2; MDA-MB231 tumor grown in vivo)	decrease of EZH2 enzyme activity/inhibition rate (EZH2; SMMC7721 tumor grown in vivo)	IC50 (Dvl-1)	EC50 (E-cadherin)	decrease of HDAC3 enzyme activity/inhibition rate (HDAC3; A549 tumor grown in vivo)	decrease of HDAC3 enzyme activity/inhibition rate (HDAC3; MCF7 tumor grown in vivo)	decrease of HDAC3 enzyme activity/inhibition rate (HDAC3; MDA-MB231 tumor grown in vivo)	decrease of HDAC3 enzyme activity/inhibition rate (HDAC3; SMMC7721 tumor grown in vivo)
CCNC(=O)CC[C@H](N)C(=O)OC [Compound IIa, theanine methyl ester]	280 µM	600 µM	29.6%	31.7%	36.8%	38.5%	350 µM	350 µM	–	–	–	–	–	–	–	–	–	–
CCNC(=O)CCC(NC(=O)c1cc2cc([N+](=O)[O-])ccc2oc1=O)C(=O)OCC (stereo in doubt) [Compound If, (R)-2-(6-nitro-2-oxo-2H-benzopyran-3-carboxamido)-5-ethylamino-5-oxo-pentanoic acid ethyl ester]	77 µM	180 µM	58.6%	64.6%	67.5%	75.8%	121 µM	171 µM	65%*(A549)-	66%*(MCF7)	63%*(MDA-MB231)	64%*(SMMC7721);	< 200 µM	< 65 µM	73%* and	67%* and	65%* and	66%* and
CCNC(=O)CC[C@@H](NC(=O)c1cc2cc(Br)cc(Br)c2oc1=O)C(=O)OCC [Compound Ih, (R)-2-(6,8-dibromo-2-oxo-2H-benzopyran-3-carboxamido)-5-ethylamino-5-oxo-pentanoic ethyl ester]	78 µM	128 µM	53.8%	63.8%	77.9%	80.7%	57 µM	87 µM	55%*(A549)-	61%*(MCF7)	59%*(MDA-MB231)	56%*(SMMC7721);	< 250 µM	< 70 µM	57%* and	64%* and	62%* and	60%* and
CCNC(=O)CCC(NC(=O)c1cc2ccccc2oc1=O)C(=O)OC (stereo not drawn) [Compound Ia, methyl 5-ethylamino-5-oxo-2-(2-oxo-2H-benzopyran-3-carboxamido)pentanoate]	67 ± 30 µM	350 µM	48.6%	51.6%	55.4%	60.9%	56 ± 10 µM	146 µM	–	–	–	54%*(SMMC-7721)	< 135 µM	< 75 µM	–	–	–	60%* and
CCNC(=O)CC[C@@H](NC(=O)c1cc2cc(Cl)ccc2oc1=O)C(=O)OCC [Compound Ic, (R)-2-(6-CI-2-oxo-2H-benzopyran-3-carboxamido)-5-ethylamino-5-oxo-pentanoic acid ethyl ester]	54 µM	89 µM	61.6%	67.6%	74.2%	79.2%	52 µM	105 µM	61%*(A549)-	56%*(MCF7)	58%*(MDA-MB231)	59%*(SMMC7721);	< 250 µM	< 65 µM	71%* and	60%* and	63%* and	65%* and
CCNC(=O)CCC(NC(=O)c1cc2ccccc2oc1=O)C(=O)OCC (stereo not drawn) [Compound Ib, ethyl 5-ethylamino-5-oxo-2-(2-oxo-2H-benzopyran-3-carboxamido)pentanoate]	65 µM	105 µM	53.6%	60.6%	58.2%	69.6%	90 µM	125 µM	54%*(A549)-	–	–	57%*(SMMC-7721)	< 300 µM	< 70 µM	65%* and	–	–	63%* and
CCNC(=O)CC[C@H](N)C(=O)OCC [Compound IIb, theanine ethyl ester]	400 µM	300 µM	33.3%	38.6%	52.3%	54.7%	400 µM	400 µM	–	–	–	–	–	–	–	–	–	–

Reference: patent US9518038B2, “Condensation product of theanine derivative and carboxylic acid coumarin derivative, its intermediate, preparation method and use thereof” (SHANDONG YINGDONG YINGHAO BIOTECHNOLOGY, INC., priority 2012, dated 2016)
